Reference: patent US12558369B2, “Compositions and methods of treating Fanconi Anemia” (Dana-Farber Cancer Institute, Inc., priority 2015, dated 2026)
“Also recorded” adds a separate entry of the source.

Columns and labels:
[1] = system: Fancd2-deficient mice; assay: pIpC physiological stress-induced bone marrow failure, LT-HSC DNA damage; assay type: in vivo, mouse
Description: FIG. 13. […] Mice were pretreated in vivo with either no Tgfβ inhibitor, the neutralizing antibody to Tgfβ 1, 2, 3, or the Tgfβ receptor kinase inhibitor, Galunisertib.

[2] = system: Fancd2−/− BM Stromal cells; assay: Colony forming capacity of bone marrow stromal cells; assay type: cell-based, mouse; conditions: 1 μM Mek-i
Experimental: FIG. 3. […] Fancd2+/+ stromal cells shown as a control. • B) Colony forming capacity of Fancd2−/− BM Stromal cells is improved by treatment with 1 μM Mek-i. • C) Immunoblot analysis showing deletion of Tgfbr1, Smad3 and p53 in murine Fancd2+/+ and Fancd2−/− stromal cells • D) Survival of Fancd2−/− stromal cells with deletion of Tgfbr1, Smad3 or p53 in presence of MMC. Error bars represent s.e.m.
FIG. 9. […] Representative image of colonies of Fancd2+/+ and Fancd2−/− cells incubated with or without 1 μM Mek inhibitor.
(§1) For survival assays, cells were seeded at a density of 1×10^3 cells per well in 96-well plates. After 72 hours of culture in indicated concentrations of MMC or post exposure of acetaldehyde, viability was assessed using CellTiterGlo reagent (Promega). In order to assess clonogenicity, cells were seeded at a low density (500-1000 cells per well) in 6-well plates and allowed to form colonies. The cells were then fixed in methanol/20% acetic acid and stained with 1% crystal violet. Colony formation was assessed by solubilizing crystal violet stain with methanol and quantifying UV absorbance for each condition.

[3] = system: Fancd2−/− stromal cells; assay: Immunoblot of phosphorylated Erk1/2 in bone marrow stromal cells; assay type: cell-based, mouse
Experimental: FIG. 2. Characterization of FA murine primary bone marrow stromal fibroblast. • A) Survival of Fancd2+/+ or Fancd2−/− stromal cells in the presence of MMC. Data are shown in triplicate. […] (Left panel) Active mouse Tgfβ1 serum levels in the culture supernatant of Fancd2+/+ or Fancd2−/− stromal cells were evaluated by ELISA. (Right panel) qRT-PCR analysis of Tgfb1 mRNA expression. Data are shown the average of three independent experiments. Error bars represent s.e.m. • C) Immunoblots of phosphorylated Erk1/2 in stromal cells treated with Tgfβ for the indicated time.
FIG. 3. […] Error bars represent s.e.m.
Human FA cells EUFA316 were grown in RPMI1640 (Life Technologies) supplemented with 10% fetal calf serum. Fancd2^+/+ and Fancd2^−/− bone marrow stromal cells were established by culturing whole bone marrow in DMEM with 10% FBS. Fancd2^−/− stromal cells were complemented with human FANCD2 by retroviral transduction of FANCD2 cDNA in pMMP-PURO vector, followed by selection in puromycin. Whole cell extracts were prepared by lysing cells in radioimmunoprecipitation assay buffer (50 mmol/L Tris, pH 7.3, 150 mmol/L NaCl, 1 mmol/L EDTA, 1% Triton X-100, 0.5% Na-deoxycholate, and 0.1% SDS) with complete protease inhibitor, NaVO4, and NaF.

[4] = system: EUFA316 (FA-G fibroblasts); assay: MMC sensitivity survival assay of FA cells with TGFβ pathway inhibitors; assay type: cell-based, human
Experimental: FIG. 1. TGFβ pathway disruption enhances FA cellular growth. • A) RIGER P value analysis to identify top candidate genes. • B) Clonogenic survival of GM6914 (FA-A fibroblasts) and FANCA-corrected GM6914 cells after shRNA mediated knockdown of SMAD3. Cells were treated with increasing doses of MMC and plated for 10-12 days. The average of two experiments is presented; error bars represent s.e.m.
as §1
as §1, with “3-6 days” for “72 hours”, “Colonies were counted after” for “Colony formation was assessed by solubilizing”, “staining.” for “stain with methanol and quantifying UV absorbance for each condition.”

[5] = system: U2OS cells; assay: Immunoblot of DNA-PK phosphorylation; assay type: cell-based, human
[6] = system: U2OS cells; assay: NHEJ reporter assay; assay type: cell-based, human; conditions: template reporter assay
[7] = system: FA-like HSPCs; assay: γH2AX and 53BP1 foci after MMC in FA-like HSPCs; assay type: cell-based, human
Description: (§2) (A) Hierarchical clustering and heat-map of the expression of TGF-β pathway genes in human FA and non-FA bone marrow samples using gene set enrichment analysis. (B-F) Colony forming assays using primary CD34+ bone marrow cells from five FA patients. Cells were transduced with lentiviruses encoding shControl, shTP53 or shSMAD3 followed by selection for puromycin resistance and then plated in methylcellulose cultures or the cells were directly plated in methylcellulose cultures containing GC1008 for colony growth. The hematopoietic colonies were counted after 10 days in culture. (G-I) Colony forming assays using FA-like CD34+ cells from human cord blood. As shown in the schematic (G), FA-like CD34+ cells were generated by transducing human cord blood CD34+ cells with lentivirus encoding shFANCD2. […] Hematopoietic colonies were counted after 10-14 days in culture (I). […] Hematopoietic colonies were counted after 10-14 days in culture. […] Human cells were analyzed in the peripheral blood at 2 weeks post transplantation. […] Representative images (L) and quantification (M) of γH2AX foci in cord blood CD34+ cells transduced with lentivirus encoding shFANCD2 or shControl. […] Cells were then analyzed for γH2AX foci by immunofluorescence. Thirty to hundred cells with more than 5 foci were counted for each sample. […]
HSPCs. […] Representative images (F) and quantification (G) of 53BP1 foci are shown.

[8] = system: FA-like CD34+ cells in NSG mice; assay: In vivo xenograft assay of FA-like CD34+ cells; parameters: species or system mouse; conditions: 10 mg/kg, 3 doses per week for 2 weeks, peripheral blood at 2 and 8 weeks
Description: as §2, with “blood.” for “blood. As shown in the schematic (G), FA-like CD34+ cells were generated by transducing human cord blood CD34+ cells with lentivirus encoding shFANCD2.”
(§3) (Dataset: GSE16334). […] Cells were cultured in methylcellulose medium post MMC treatment (2 h at 100 ng/mL) and hematopoietic colonies were counted after 10 days in culture. […] Hematopoietic colonies were counted after 10-14 days in culture. […]

[9] = system: FA-like CD34+ cells from human cord blood; assay: Colony forming assay of FA-like CD34+ cells; assay type: cell-based; conditions: GC1008 10 μg/mL, colonies after 10-14 days
Description: as §2, with “blood.” for “blood. As shown in the schematic (G), FA-like CD34+ cells were generated by transducing human cord blood CD34+ cells with lentivirus encoding shFANCD2.”
as §3

[10] = system: primary HSPCs from bone marrow of FA patients; assay: Colony forming assay of primary CD34+ bone marrow cells from FA patients; assay type: cell-based, human; conditions: methylcellulose, colonies after 10 days
Description: (A) Hierarchical clustering and heat-map of the expression of TGF-β pathway genes in human FA and non-FA bone marrow samples using gene set enrichment analysis. (B-F) Colony forming assays using primary CD34+ bone marrow cells from five FA patients. Cells were transduced with lentiviruses encoding shControl, shTP53 or shSMAD3 followed by selection for puromycin resistance and then plated in methylcellulose cultures or the cells were directly plated in methylcellulose cultures containing GC1008 for colony growth. The hematopoietic colonies were counted after 10 days in culture. (G-I) Colony forming assays using FA-like CD34+ cells from human cord blood. As shown in the schematic (G), FA-like CD34+ cells were generated by transducing human cord blood CD34+ cells with lentivirus encoding shFANCD2. […] Hematopoietic colonies were counted after 10-14 days in culture (I). (J) Colony forming assay of FA-like CD34+ cells with GC1008 treatment. Hematopoietic colonies were counted after 10-14 days in culture. […] Human cells were analyzed in the peripheral blood at 2 weeks post transplantation. […] Representative images (L) and quantification (M) of γH2AX foci in cord blood CD34+ cells transduced with lentivirus encoding shFANCD2 or shControl. […] Cells were then analyzed for γH2AX foci by immunofluorescence. Thirty to hundred cells with more than 5 foci were counted for each sample. […]

[11] = system: Fancd2−/− HSPCs; assay: Clonogenic assay of HSPCs in methylcellulose; assay type: cell-based, mouse; conditions: TGF-β1 1 ng/mL, Ab 10 μg/mL or SD208 10 μM; colonies after 7-10 days
Experimental: (A) Expression of phospho-Smad2/3 proteins in HSPCs from WT and Fancd2−/− mice as detected by flow cytometric analysis. (B) Quantification of mean fluorescence intensity (MFI) of phospho-Smad2/3 staining by flow cytometric analysis shown in (A) in HSPCs from WT and Fancd2−/− mice. (C) Fancd2−/− HSPCs are more sensitive to TGF-β1 than WT HSPCs. Sorted Lin− cells from WT or Fancd2−/− mice were exposed to TGF-β1. After 5 days in culture, LSK cells were analyzed by flow cytometry and quantified. Data are shown after normalizing to untreated WT group. […] Sorted Lin− cells from WT and Fancd2−/− mice were exposed to TGF-β1 (1 ng/mL) with or without TGF-beta 1,2,3 Ab (10 μg/mL) or SD208 (10 μM), and viable cells were counted after 5 days in culture. Data shown are after normalizing to untreated WT group. Error bars represent mean±s.e.m. (F) Clonogenic assay of WT and Fancd2−/− HSPCs treated with TGF-β1, TGF-beta 1, 2, 3 Ab or SD208. […] Hematopoietic colonies were counted after 7-10 days in culture. […] (I) Representative FACS plots of LSK cells analyzed by flow cytometry for GFP expression after 5 days in vitro culture in stem cell culture medium. […] Luciferase activity was measured. (L) Binding of FANCD2 to SMAD1 promoter (region −2108 to −1950 bp) upon DNA damage as detected by ChIP assay using anti-FANCD2 antibody in corrected GM6914 (+FANCA) but not GM6914 (+Vector) fibroblast cells. […]

[12] = mice pretreated in vivo, LT-HSCs isolated

Cc1cccc(-c2nn3c(c2-c2ccnc4ccc(C(N)=O)cc24)CCC3)n1 [Galunisertib]
pIpC-induced DNA damage in LT-HSCs, comet assay [1, 12]: rescued the pIpC-induced DNA damage | pIpC-induced DNA damage, gamma H2AX foci [1, 12]: rescued the pIpC-induced DNA damage | physiological stress-induced bone marrow failure ([1]; mice, pIpC, pretreated in vivo): rescues physiological stress-induced bone marrow failure

O=C(NOC[C@H](O)CO)c1ccc(F)c(F)c1Nc1ccc(I)cc1F [PD0325901]
clonogenicity / colony forming capacity of Fancd2−/− stromal cells [2]: significantly increased the clonogenicity | clonogenicity / colony forming capacity of Fancd2−/− stromal cells ([2]; listed as Mek-i): improved | Erk1/2 phosphorylation ([3]; mouse stromal cells exposed to MEK inhibitor): inhibition of Erk1/2 phosphorylation; also recorded: reduces p-Erk1/2 expression

COc1cc2c(cc1OC)CN(C(=O)/C=C/c1c(-c3ccccc3)n(C)c3ncccc13)CC2 [SIS3]
FA cells survival in the presence of MMC ([4]; FA cell lines with inhibitor): improved FA cells survival in the presence of MMC | cytotoxicity of corrected FA cells ([4]; corrected FA cells): do not significantly alter cytotoxicity of corrected FA cells | phosphorylation of DNA-PK [5]: blocks phosphorylation of DNA-PK | NHEJ activity [6]: decreased NHEJ

GC1008: anti-human TGF-β neutralizing antibody
number of FA-like HSPCs with 53BP1 foci ([7]; MMC 100 ng/mL 2 h, 24 h recovery): significantly reduced | number of FA-like HSPCs with γH2AX foci ([7]; MMC 100 ng/ml 2 hrs, 24 hrs recovery): significantly reduced | engraftment of primary FA-like CD34+ cells [8]: enhanced the engraftment | clonogenic capacity of FA-like HSPCs [9]: markedly rescuing the clonogenic capacity | clonogenic defects of primary HSPCs from FA patients [10]: rescued the clonogenic defects

TGF-β1: recombinant TGFβ1 cytokine (human from ProPeptide, mouse from R&D)
phosphorylation of DNA-PK [5]: activated phosphorylation of DNA-PK | pErk1/2 after mTGFβ1 exposure ([3]; FA stromal cells): further activated pErk1/2 | clonogenic ability of Fancd2−/− HSPCs [11]: inhibited
